Results on nine molecules are retold here after patent publication US8889876B2, “Histone deacetylase inhibitors and uses thereof” (Jiangsu Hengyi Pharmaceutical Co., Ltd., priority 2008, dated 2014).

Each structure is given as a SMILES string.

Common to all, as to format: cell-based
Test [1] has as its system Hep3B2.1-7 human liver cancer cells. The test can be described thus: CCK-8 proliferation inhibition, Hep3B2.1-7. The note with it: Homo sapiens, Hep3B, CCK-8 method; for inhibition at 10 µM: compound concentration 10 μM; for inhibition at 100 µM: compound concentration 100 μM. As for the experimental part: (§1) Detecting the inhibition rate of the compound concentrations of 100 μM and 10 μM to Hut78 T-cell Leukemia cell, Jurkat E6-1 human T-cell lymphoma, PANC-1 human pancreatic cancer cells, A549 human lung cancer cells, K562 human chronic myeloid leukemia cells, Hep3B2.1-7 human liver cancer cells, MDA-MB-435s human breast cancer cells, Colo320 human rectal cancer cells and PC-3 human prostate cancer using CCK-8 method.
(In general: Formazan colour is commonly taken as a measure of viable cells.)

Test [2] has as its system PC-3 human prostate cancer. The test can be described thus: CCK-8 proliferation inhibition, PC-3. The note with it: Homo sapiens, CCK-8 method; for inhibition at 10 µM: compound concentration 10 μM; for inhibition at 100 µM: compound concentration 100 μM. The method, then:
as §1

The test system of test [3] is K562 human chronic myeloid leukemia cells. The test can be described thus: CCK-8 proliferation inhibition, K562. The note with it: Homo sapiens; for inhibition at 10 µM: K562, 10 μM; for inhibition at 100 µM: K562, 100 μM. As for the experimental part: as §1
Test [4] deals with Hut78 T-cell Leukemia cell. The test can be described thus: CCK-8 proliferation inhibition, Hut78. Conditions: Homo sapiens, read-out: Hut-78 (inhibition %); for inhibition at 10 µM: HuT78, 10 μM; for inhibition at 100 µM: HuT78, 100 μM. As for the experimental part:
as §1

In test [5] the test system is PANC-1 human pancreatic cancer cells. The test can be described thus: CCK-8 proliferation inhibition, PANC-1. Conditions: Homo sapiens; for inhibition at 10 µM: PANC-1, 10 μM; for inhibition at 100 µM: PANC-1, 100 μM. As for the experimental part:
as §1

The subject of test [6] is Jurkat E6-1 human T-cell lymphoma. The test can be described thus: CCK-8 proliferation inhibition, Jurkat E6-1. The note with it: Homo sapiens; for inhibition at 10 µM: Jurkat E6.1, 10 μM; for inhibition at 100 µM: Jurkat E6.1, 100 μM. As for the experimental part: as §1
In test [7] the test system is Colo320 human rectal cancer cells. The test can be described thus: CCK-8 proliferation inhibition, Colo320. Conditions: Homo sapiens, COLO 320, CCK-8 method; for inhibition at 10 µM: compound concentration 10 μM; for inhibition at 100 µM: compound concentration 100 μM. The method, then:
as §1

The subject of test [8] is MDA-MB-435s human breast cancer cells. The test can be described thus: CCK-8 proliferation inhibition, MDA-MB-435s. The note with it: Homo sapiens, MDA-MB-435S, CCK-8 method; for inhibition at 10 µM: compound concentration 10 μM; for inhibition at 100 µM: compound concentration 100 μM. As for the experimental part:
as §1

The test system of test [9] is A549 human lung cancer cells. The test can be described thus: CCK-8 proliferation inhibition, A549. The note with it: Homo sapiens, A549, CCK-8 method; for inhibition at 10 µM: compound concentration 10 μM; for inhibition at 100 µM: compound concentration 100 μM. The method, then: as §1

Usually inhibition stands for the change of the read-out against control, counted positive when it falls. Take `Cc1ccc(COC(=O)NCc2ccc(C(=O)Nc3ccncc3N)cc2)cc1` [V-10]: the inhibition at 10 µM is -7% in test [1]; 23.7% in [2]; 53.6% in test [3]; 15.5% in [4]; 16.9% in test [5]; 27.2% in test [6]. Besides, the inhibition at 10 µM in [7] was -5.5%; in test [8], 8%; in [9], -16.9%. The inhibition at 100 µM came to 57.5% in [1]; 56% in test [2]; 87.2% in test [3]; 66.6% in [4]; 19.7% in [5]; 93.3% in test [6]. Besides, the inhibition at 100 µM in test [7] was determined as 59.2%; in [8], 79.1%; in [9], 45.7%.
In the case of `COc1ccc(COC(=O)NCc2ccc(C(=O)Nc3ccncc3N)cc2)cc1` [V-12], the inhibition at 10 µM in test [1] was 5%; in test [2] it was 29.7%; in test [3], 56.9%; in test [4] it was 17.5%; in test [5], -1.8%; in test [6], 36.4%. Besides, the inhibition at 10 µM in test [7] was -1.8%; in test [8] it was 14.2%; in test [9] it was -5.9%. Besides, the inhibition at 100 µM in test [1] was 90.4%; in test [2], 89.3%; in [3], 94.5%; in [4] it was 83.6%; in test [5], 34.9%; in test [6], 96.3%. The inhibition at 100 µM amounted to 86.4% in [7], 94.5% in [8] and 38% in test [9].
On to `Nc1ncccc1NC(=O)c1ccc(CNC(=O)OCc2ccc([N+](=O)[O-])cc2)cc1` [V-15, N-(2-amino-3-pyridyl)-4-[(4-nitrobenzyloxyacyl)aminomethyl]benzamide], for which the inhibition at 10 µM in test [1] turned out to be 22.3%; in [2], 21.9%; in test [3], 20.4%; in test [4], 28.5%; in [5], 24%; in [6], 18.6%. Also, the figures for the inhibition at 10 µM in [7], in [8] and in test [9] were 2.6%, 30.6% and 15.3%, respectively. Further, the inhibition at 100 µM in [1] is 43%; in [2], 18.8%; in test [3] it was 32.3%; in [4], 24.6%; in [5], 21.1%; in test [6] it was 26.3%. The inhibition at 100 µM is 4.1% in [7], 42.4% in [8] and 12.9% in test [9].
On to `Nc1ncccc1NC(=O)c1ccc(CNC(=O)OCc2ccc(F)cc2)cc1` [V-19, N-(2-amino-3-pyridyl)-4-[(4-fluorobenzyloxyacyl)aminomethyl]benzamide], for which the inhibition at 10 µM in test [1] is 21.5%; in test [2], -1.9%; in [3], 25%; in test [4], 19.8%; in test [5], 26%; in [6] it was 19.1%. In addition, the values for the inhibition at 10 µM in test [7], in test [8] and in test [9] were 0.9%, 27.5% and 18.3%, respectively. Further, the inhibition at 100 µM in test [1] worked out at 69.8%; in [2], 48.5%; in test [3], 65.1%; in test [4], 54%; in test [5], 36.8%; in [6], 77.8%. The inhibition at 100 µM in test [7] is 34.3%; in [8], 89.1%; in test [9], 57.1%.
For the molecule `Nc1cnccc1NC(=O)c1ccc(CNC(=O)OCc2ccc(F)cc2)cc1` [V-20], the inhibition at 10 µM in test [1] is 7.2%; in test [2], 22.9%; in test [3], 34%; in test [4], 22%; in [5], -2.8%; in test [6] it was 23.8%. Also, the inhibition at 10 µM was -14.3% in test [7], 19.5% in test [8] and -17.6% in test [9]. The inhibition at 100 µM came out at 79.3% in test [1]; 84.4% in test [2]; 88.7% in [3]; 91.1% in test [4]; 15.7% in test [5]; 96.5% in [6]. For the same molecule, the inhibition at 100 µM in test [7] is 82.7%; in [8], 63.9%; in [9] it was 72.2%.
Take `Nc1ncccc1NC(=O)c1ccc(CNC(=O)/C=C/c2ccccc2)cc1` [V-25, N-(2-amino-3-pyridyl)-4-(cinnamoylaminomethyl)benzamide]: the inhibition at 10 µM in test [1] worked out at 18.4%; in test [2] it was 41.8%; in test [3], 33.6%; in test [4] it was 23.4%; in test [5], 12%; in [6] it was 20.3%. The inhibition at 10 µM in test [7] was determined as 4.9%; in test [8] it was 32.5%; in test [9], 29.8%. Besides, the inhibition at 100 µM in [1] was 45.7%; in test [2], 67.1%; in test [3], 72.4%; in test [4] it was 53.5%; in test [5], 25.1%; in [6] it was 80.2%. For the same molecule, the inhibition at 100 µM came to 28.9% in test [7], 73.3% in test [8] and 67.9% in [9].
In the case of `Cc1ccc(/C=C/C(=O)NCc2ccc(C(=O)Nc3cccnc3N)cc2)cc1` [V-27, N-(2-amino-3-pyridyl)-4-[(4-methylcinnamoyl)aminomethyl]benzamide], the inhibition at 10 µM was determined as 25.4% in [1]; 50.2% in test [2]; 54.3% in [3]; 43% in test [4]; 20.2% in [5]; 58.3% in [6]. Besides, the results for the inhibition at 10 µM in test [7], in test [8] and in test [9] were 12.9%, 33% and 6.3%, respectively. The inhibition at 100 µM amounted to 49.9% in [1]; 61% in test [2]; 85.8% in test [3]; 77% in test [4]; 26.2% in test [5]; 80.9% in [6]. Further, the inhibition at 100 µM in test [7] came out at 40.1%; in test [8] it was 77%; in [9] it was 37.3%.
On to `COc1ccc(/C=C/C(=O)NCc2ccc(C(=O)Nc3cccnc3N)cc2)cc1` [V-29, N-(2-amino-3-pyridyl)-4-[(4-methoxycinnamoyl)aminomethyl]benzamide], for which the inhibition at 10 µM is 11% in [1]; 40.1% in test [2]; 52.2% in [3]; 45.2% in [4]; 12.5% in test [5]; 49.3% in test [6]. Further, the inhibition at 10 µM in test [7] was 9.5%; in [8], 17%; in [9] it was 0%. In addition, the inhibition at 100 µM worked out at 68.1% in test [1]; 64.2% in [2]; 85.2% in test [3]; 75.6% in test [4]; 33.3% in [5]; 89.7% in test [6]. Moreover, the figures for the inhibition at 100 µM in test [7], in [8] and in [9] were 45.9%, 57.8% and 41.3%, respectively.
As for `Nc1ncccc1NC(=O)c1ccc(CNC(=O)/C=C/c2ccc(F)cc2)cc1` [V-40, N-(2-amino-3-pyridyl)-4-[(4-fluorocinnamoyl)aminomethyl]benzamide], the inhibition at 10 µM is -5% in test [1]; 6.3% in [2]; 45% in test [3]; 29.2% in test [4]; 4.4% in test [5]; 31.6% in test [6]. The inhibition at 10 µM in test [7] is 10%; in test [8] it was 28.5%; in test [9], 2.8%. Further, the inhibition at 100 µM came to 51.7% in test [1]; 38.8% in test [2]; 75% in test [3]; 69.3% in test [4]; 9.5% in test [5]; 87.6% in test [6]. Moreover, the results for the inhibition at 100 µM in test [7], in test [8] and in [9] were 32.3%, 76.3% and 47.7%, respectively.
